{"source": "patent US20110124569A1", "about": "“MACROCYCLIC COMPOUNDS, PROTEASE INHIBITION, AND METHODS OF TREATMENT” (priority 2007, published 2011)", "key": {"[1]": {"target": "T1, α-chymotrypsin (bovine pancreas) (Bos taurus, UniProt P00766)", "T1 construct": "purchased Sigma C4129", "assay": "α-Chymotrypsin inhibition assay", "format": "biochemical", "conditions": "substrate concentration near Km (0.75 mM N-succinyl-Gly-Gly-Phe-p-nitroanilide)", "description": "(§1) The test samples for 1-6 were prepared in DMSO by (log/2)-fold dilutions ranging from 1 mM to 100 pM. All assays were performed in triplicate. Phenylmethylsulfonyl fluoride (PMSF) was used as a positive control in the enzyme assays.\n(§2) Inhibitory activity against α-chymotrypsin (bovine pancreas; Sigma, C4129) was determined as follows. A 1-mg/mL solution of chymotrypsin was prepared in assay buffer (50 mM Tris-HCl/100 mM NaCl/1 mM CaCl2, pH 7.8). […] The increase in absorbance was measured for 30 min at intervals of 5 min at 405 nm."}, "[2]": {"target": "T2, porcine pancreatic elastase (Sus scrofa, UniProt P00772)", "T2 construct": "purchased EPC EC134", "T2 sequence (P00772 27-266)": "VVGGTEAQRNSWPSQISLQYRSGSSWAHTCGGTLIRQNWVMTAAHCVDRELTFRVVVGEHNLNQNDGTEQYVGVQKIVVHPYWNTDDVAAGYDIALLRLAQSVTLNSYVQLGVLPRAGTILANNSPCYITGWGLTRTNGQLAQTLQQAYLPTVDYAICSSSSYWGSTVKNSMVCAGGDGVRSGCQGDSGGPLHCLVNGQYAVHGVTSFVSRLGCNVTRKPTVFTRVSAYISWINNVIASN", "assay": "Porcine pancreatic elastase inhibition assay", "format": "biochemical", "conditions": "for IC50: substrate concentration near Km (1.5 mM N-succinyl-Ala-Ala-Ala-p-nitroanilide), read-out: Porcine pancreatic elastase inhibitory activity IC50", "description": "as §1\nTo test the inhibition of porcine pancreatic elastase (Elastase-high purity; EPC, EC134), 75 μg/mL solution of elastase was prepared using Tris-HCl (pH 8.0). […] After preincubation of 165 μL of Tris-HCl (pH 8.0), 10 μL of elastase solution, and 10 μL of test samples in DMSO (5% final concentration) in a microtiter plate at 30° C. for 20 min, 15 μL of substrate solution (1.5 mM final concentration) was added to the mixture. The increase in absorbance was measured for 30 min at intervals of 5 min at 405 nm. Competitive binding was determined by plotting enzyme activity against substrate concentrations in the presence of different inhibitor concentrations (Lineweaver-Burk plot)."}, "[3]": {"test_system": "HT29 colon adenocarcinoma cells", "assay": "MTT-based cell viability assessment", "conditions": "highest concentration tested (50 μM)", "description": "The effects of compounds 5 and 6 on the proliferation of cancer cells was also assessed."}, "[4]": {"target": "T3, trypsin from porcine pancreas (Sus scrofa, UniProt P00761)", "T3 construct": "purchased Sigma T0303", "T3 sequence (P00761 9-231)": "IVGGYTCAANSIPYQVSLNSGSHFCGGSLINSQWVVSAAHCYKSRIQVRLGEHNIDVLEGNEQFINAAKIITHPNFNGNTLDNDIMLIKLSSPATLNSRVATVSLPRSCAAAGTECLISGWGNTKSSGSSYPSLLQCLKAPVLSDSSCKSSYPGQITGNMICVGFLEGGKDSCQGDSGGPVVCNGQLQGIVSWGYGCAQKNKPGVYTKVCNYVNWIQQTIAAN", "assay": "Trypsin inhibition assay", "format": "biochemical", "description": "as §1, §2\nInhibitory activity against trypsin was assayed as described above for chymotrypsin, using trypsin from porcine pancreas (Sigma, T0303) and Nα-benzoyl-DL-arginine-4-nitroanilide hydrochloride as the substrate solution."}, "[5]": {"test_system": "trypsin", "conditions": "cited from earlier work"}, "[6]": {"target": "elastase (Sus scrofa, UniProt P00772)", "sequence (P00772 27-266)": "as the sequence (P00772 27-266) above", "conditions": "literature, cited from earlier work"}, "[7]": {"test_system": "chymotrypsin", "conditions": "literature, Amp-containing compound; cited from earlier work"}}, "note": "Where two headings read alike, the source gives them in different places."}
{"molecule": "C/C=C1\\NC(=O)C(NC(=O)C(CCc2ccc(O)cc2)NC(=O)C(C)NC(=O)C(O)CO)C(C)OC(=O)C(C(C)C)NC(=O)C(Cc2ccc(O)cc2)N(C)C(=O)C(Cc2ccccc2)N2C(=O)C(CCC2O)NC1=O", "note": "(stereo not shown) [Compound 1, Lyngbyastatin 5]", "values": [{"measurement": "IC50", "setting": "[1]", "result": "2.8 ± 0.3", "unit": "µM"}, {"measurement": "IC50", "setting": "[2]", "result": "0.0032 ± 0.002", "unit": "µM"}]}
{"molecule": "C/C=C1\\NC(=O)[C@@H](NC(=O)[C@H](CCc2ccc(O)cc2)NC(=O)[C@H](C)NC(=O)[C@H](O)COS(=O)(=O)O)[C@@H](C)OC(=O)[C@H](C(C)C)NC(=O)[C@H](Cc2ccc(O)cc2)N(C)C(=O)[C@H](Cc2ccccc2)N2C(=O)[C@H](CC[C@H]2OC)NC1=O", "note": "[Compound 2, Lyngbyastatin 6]", "values": [{"measurement": "IC50", "setting": "[1]", "result": "2.5 ± 0.8", "unit": "µM"}, {"measurement": "IC50", "setting": "[2]", "result": "0.0033 ± 0.0008", "unit": "µM"}]}
{"molecule": "C/C=C1\\NC(=O)C(NC(=O)C(CCC(N)=O)NC(=O)CCC)C(C)OC(=O)C(C(C)C)NC(=O)C(Cc2ccc(O)cc2)N(C)C(=O)C(Cc2ccccc2)N2C(=O)C(CCC2O)NC1=O", "note": "(stereo not shown) [Compound 4, somamide B, reference compound]", "values": [{"measurement": "IC50", "setting": "[1]", "result": "4.2 ± 0.5", "unit": "µM"}, {"measurement": "IC50", "setting": "[2]", "result": "0.0095 ± 0.0052", "unit": "µM"}]}
{"molecule": "CC(=O)N1CCC[C@H]1C(=O)N[C@H](C(=O)N[C@@H]1C(=O)N[C@@H](CC(C)C)C(=O)NC2CC[C@@H](O)N(C2=O)[C@@H](Cc2ccccc2)C(=O)N(C)C(Cc2ccc(O)cc2)C(=O)N[C@@H](C(C)C)C(=O)O[C@@H]1C)[C@@H](C)O", "note": "(stereo partly shown) [Compound 5, Kempopeptin A]", "values": [{"measurement": "effect on growth of HT29 cells", "setting": "[3]", "result": "did not significantly affect the growth"}, {"measurement": "elastase inhibition and selectivity over chymotrypsin", "setting": "[2]", "result": "inhibited elastase with a slight selectivity over chymotrypsin"}]}
{"molecule": "CCCC(=O)N[C@H](C(=O)N[C@@H]1C(=O)N[C@@H](CCCCN)C(=O)N[C@H]2CC[C@@H](O)N(C2=O)[C@@H]([C@@H](C)CC)C(=O)N(C)[C@@H](Cc2ccc(OC)c(Br)c2)C(=O)N[C@@H](C(C)C)C(=O)O[C@@H]1C)C(C)C", "note": "[Compound 6, Kempopeptin B]", "values": [{"measurement": "trypsin inhibition, selectivity versus elastase and chymotrypsin", "setting": "[4]", "result": "selective in vitro trypsin inhibition"}, {"measurement": "trypsin inhibition, selectivity versus elastase and chymotrypsin", "setting": "[4]; listed as kempopeptin B", "result": "inhibited only trypsin activity"}, {"measurement": "effect on growth of HT29 cells", "setting": "[3]", "result": "did not significantly affect the growth"}]}
{"molecule": "C/C=C1\\NC(=O)C(NC(=O)C(CCc2ccc(O)cc2)NC(=O)C(C)NC(=O)C(O)COS(=O)(=O)O)C(C)OC(=O)C(C(C)C)NC(=O)C(Cc2ccc(O)cc2)N(C)C(=O)C(Cc2ccccc2)N2C(=O)C(CCC2O)NC1=O", "note": "(stereo not shown) [lyngbyastatin 4]", "values": [{"measurement": "trypsin activity upon treatment, previous findings", "setting": "[5]; previous publication (J. Nat. Prod. 2007, 70, 124-127)", "result": "unaffected"}]}
{"molecule": "CCCCCC(=O)N[C@@H](CC(=O)O)C(=O)N[C@@H]1C(=O)N[C@@H](CCCCN)C(=O)N[C@H]2CC[C@@H](O)N(C2=O)[C@@H]([C@@H](C)CC)C(=O)N(C)[C@@H](Cc2ccc(O)cc2)C(=O)N[C@@H](C(C)C)C(=O)O[C@@H]1C", "note": "[micropeptin SD944]", "values": [{"measurement": "IC50 against trypsin", "setting": "[5]; literature value", "result": 8.0, "unit": "µg/mL"}]}
{"molecule": "oscillapeptin C", "values": [{"measurement": "elastase inhibition", "setting": "[6]; Amp-containing compound", "result": "does not inhibit elastase"}, {"measurement": "chymotrypsin inhibition", "setting": "[7]", "result": "still inhibits chymotrypsin"}]}
{"molecule": "planktopeptin BL843", "values": [{"measurement": "protease-inhibitory activity compared with the other planktopeptins", "setting": "[6]", "result": "one order of magnitude lower"}]}
